We go through nine molecules from patent publication US8440836B2, “Heterocyclic alkanol derivatives” (Bayer Intellectual Property GmbH, priority 2010, dated 2013).

For one data set, the system named is Rhizoctonia solani. Description: Rhizoctonia test (cotton)/seed treatment. It counts as in vivo. As to conditions: cottonseed treatment, dose 50 g/dt, greenhouse 20° C. 7 days. On the procedure:
The test was conducted under greenhouse conditions. Cottonseeds treated with an inventive active compound or a combination of inventive active compounds were sown in 6×6 cm vessels, into a mixture of steamed field soil and sand (1:1). The test compound(s) were dissolved in N-methyl-2-pyrrolidone and diluted to the desired concentration with water. Perlite was inoculated with spores of Rhizoctonia solani. The infected perlite was distributed between the treated cottonseeds. The seeds were covered with a top layer of clay granules and incubated in a greenhouse at 20° C. for 7 days.

The subject of a further data set is Septoria tritici. As to the kind of experiment: Septoria tritici test (wheat)/protective. It counts as in vivo. The conditions noted are these: wheat plants, protective spray, 500 ppm active ingredient, evaluation 21 days after inoculation.
For a further data set, the system named is Leptosphaeria maculans. Description: Leptosphaeria test (oilseed rape)/seed treatment. In kind it is in vivo. As to conditions: rapeseed treatment, dose 50 g/dt, greenhouse 10° C. 14 days and 18° C. 7 days. How it is done: The test was conducted under greenhouse conditions. […] treated with an inventive active compound or a combination of inventive active compounds were sown in 6×6 cm vessels, into a mixture of steamed field soil and to sand (1:1). The test compound(s) were dissolved in N-methyl-2-pyrrolidone and diluted to the desired concentration with water. Perlite was inoculated with spores of Leptosphaeria maculans. The infected perlite was distributed between the treated […]. The seeds were covered with a top layer of steamed field soil and sand (1:1) and incubated in a greenhouse at 10° C. for 14 days and at 18° C. for 7 days.

For a further data set, the system named is Sphaerotheca fuliginea. Description: Sphaerotheca test (cucumber)/protective. The conditions noted are these: cucumber plants, protective spray, 500 ppm active ingredient, evaluation 7 days after inoculation.
The subject of another data set is Fusarium culmorum. As to the kind of experiment: Fusarium test (wheat)/seed treatment. It counts as in vivo. The conditions noted are these: dose 50 g/dt, greenhouse 20° C. 14 days. On the procedure: (§1) The test was conducted under greenhouse conditions. Wheat seeds treated with an inventive active compound or a combination of inventive active compounds were sown in 6×6 cm vessels, into a mixture of steamed field soil and sand (1:1). The test compound(s) were dissolved in N-methyl-2-pyrrolidone and diluted to the desired concentration with water. Wheat kernels were inoculated with spores of Fusarium culmorum. The infected and ground kernels were distributed between the treated wheat seeds. The seeds were covered with a top layer of clay granules and incubated in a greenhouse at 20° C. for 14 days. Evaluation was effected by counting the plants which emerged.

In data set [1] the test system is Blumeria graminis f.sp. hordei. Description: Blumeria graminis test (barley)/protective. It counts as in vivo. As to conditions: barley plants, protective spray, 500 ppm active ingredient, evaluation 7 days after inoculation.
Another data set relates to Venturia inaequalis. Description: Venturia test (apple)/protective. The conditions noted are these: apple plants, protective spray, 100 ppm active ingredient, evaluation 10 days after inoculation.
For the next data set, the system named is Puccinia triticina. As to the kind of experiment: Puccinia triticina test (wheat)/protective. In kind it is in vivo. As to conditions: wheat plants, protective spray, 500 ppm active ingredient, evaluation 8 days after inoculation. An excerpt:
Evaluation follows 8 days after the inoculation.

The next data set deals with Leptosphaeria nodorum. As to the kind of experiment: Leptosphaeria nodorum test (wheat)/protective. The conditions noted are these: wheat plants, protective spray, 500 ppm active ingredient, evaluation 8 days after inoculation. In kind it is in vivo.
Data set [2] in a line: logP by HPLC (EEC Directive 79/831 Annex V.A8). It counts as physicochemical. The conditions noted are these: HPLC reversed-phase C18, method [a]: LC-MS, pH 2.7, 0.1% aqueous formic acid / acetonitrile, gradient 10% to 95% acetonitrile.
A further data set concerns Microdochium nivale. Description: Microdochium test (wheat)/seed treatment. The conditions noted are these: dose 50 g/dt, greenhouse 10° C. 21 days. It counts as in vivo. How it is done:
as §1, with “Microdochium nivale.” for “Fusarium culmorum.”, “steamed field soil and sand (1:1)” for “clay granules”, “10°” for “20°”, “21” for “14”, “days.” for “days. Evaluation was effected by counting the plants which emerged.”

Description for Sphaerotheca fuliginea: • Solvent: 49 parts by weight of N,N-dimethylformamide • Emulsifier: 1 part by weight of alkylaryl polyglycol ether
To produce an appropriate active ingredient formulation, 1 part by weight of active ingredient is mixed with the specified amounts of solvent and emulsifier, and the concentrate is diluted with water to the desired concentration. To test for protective activity, young cucumber plants are sprayed with the formulation of active ingredient at the stated application rate. 1 day after the treatment, the plants are inoculated with a spore suspension of Sphaerotheca fuliginea. The plants are then placed in a greenhouse at 70% relative air humidity and a temperature of 23° C. Evaluation follows 7 days after the inoculation.
Description for Venturia inaequalis: • Solvent: 24.5 parts by weight of acetone • 24.5 parts by weight of dimethylacetamide • Emulsifier: 1 part by weight of alkylaryl polyglycol ether
To produce an appropriate active ingredient formulation, 1 part by weight of active ingredient is mixed with the specified amounts of solvent and emulsifier, and the concentrate is diluted with water to the desired concentration. To test for protective activity, young plants are sprayed with the active ingredient formulation at the stated application rate. After the spray coating has dried on, the plants are inoculated with an aqueous conidia suspension of the apple scab pathogen Venturia inaequalis and then remain in an incubation cabin at about 20° C. and 100% relative air humidity for 1 day. The plants are then placed in a greenhouse at about 21° C. and a relative air humidity of about 90%. Evaluation follows 10 days after the inoculation.

For the molecule `CC(C)(C)C(O)(COc1ccc(I)cc1)c1cncs1` (stereo not shown) [Compound 1], the “efficiency (emerged and diseased plants)” value in the data set on Rhizoctonia solani is on record as 70%. The efficacy is on record as 100% in the data set with Septoria tritici; 100% in the data set on Sphaerotheca fuliginea; 100% in [1]; 99% in the data set with Venturia inaequalis; 100% in the data set with Puccinia triticina; 100% in the data set with Leptosphaeria nodorum. The “efficiency (emerged plants)” value in the data set on Leptosphaeria maculans came to 70%; with Fusarium culmorum it was 100%.

As for `CC(C)(C)C(O)(COc1ccc(Br)cc1)c1cncs1` (stereo not shown) [Compound 2], the efficacy worked out at 100% with Septoria tritici; 99% in the data set on Sphaerotheca fuliginea; 100% in data set [1]; 93% with Venturia inaequalis; 100% with Puccinia triticina; 100% in the data set on Leptosphaeria nodorum.

Turning to `CO/N=C/c1ccc(OCC(O)(c2cncs2)C(C)(C)C)cc1` (stereo not shown) [Compound 3], the efficacy in the data set with Septoria tritici is recorded as 83%; in data set [1], 100%; with Venturia inaequalis, 100%; in the data set with Puccinia triticina, 89%; in the data set on Leptosphaeria nodorum, 92%.

`CC1(C(O)(COc2ccc(Cl)cc2)c2cncs2)CC1` (stereo not shown) [Compound 14]: the efficacy was determined as 95% in the data set on Sphaerotheca fuliginea and 98% in the data set with Venturia inaequalis. For the same molecule, the logP result in [2] is “logP 3.11^[a]; [M + H]^+ = 310; 312”.

As to `CC1(C(O)(COc2ccc(Br)cc2)c2cncs2)CCCCC1` (stereo not shown) [Compound 33], the efficacy amounted to 100% in the data set on Sphaerotheca fuliginea, 89% in data set [1], 99% in the data set with Venturia inaequalis and 83% in the data set with Puccinia triticina. In [2], the logP entry is “logP 4.37^[a]; [M + H]^+ = 396/398”.

`CC(C)(C)C(O)(COc1ccc(SC(F)(F)F)cc1)c1cncs1` (stereo not shown) [Compound 41]: the efficacy with Septoria tritici stood at 71%; in the data set on Sphaerotheca fuliginea, 95%; in data set [1], 100%; with Venturia inaequalis, 95%; in the data set on Puccinia triticina it was 100%; in the data set with Leptosphaeria nodorum, 100%. Besides, the logP result in data set [2] was “logP 3.98^[a]; [M + H]^+ = 378”.

With `OC(Cc1cncs1)(Cc1ccccc1Cl)C1(Cl)CC1` (stereo not shown) [Compound 57], the “efficiency (emerged and diseased plants)” value in the data set with Rhizoctonia solani amounted to 80%. Also, the efficacy is 70% in the data set with Septoria tritici; 100% in the data set on Sphaerotheca fuliginea; 100% in data set [1]; 100% with Venturia inaequalis; 88% in the data set on Leptosphaeria nodorum. For the same molecule, the results for the “efficiency (emerged plants)” value with Leptosphaeria maculans, with Microdochium nivale and with Fusarium culmorum were 80%, 78% and 89%, respectively.

As to `OC(Cc1cncs1)(Cc1ccccc1F)C1(Cl)CC1` (stereo not shown) [Compound 60], in the data set on Rhizoctonia solani, the “efficiency (emerged and diseased plants)” value was 90%. For the same molecule, the efficacy in the data set with Septoria tritici stood at 94%; in the data set with Sphaerotheca fuliginea, 100%; in data set [1], 100%; in the data set on Venturia inaequalis it was 100%; with Puccinia triticina, 95%; in the data set with Leptosphaeria nodorum, 100%. The “efficiency (emerged plants)” value is given as 80% in the data set with Leptosphaeria maculans, 100% in the data set with Microdochium nivale and 89% in the data set on Fusarium culmorum. Also, the logP result in data set [2] was “logP 3.06^[a]; [M + H]^+ = 312”.

For the molecule `CC(C)(C)C(O)(COc1ccc(C2CC2)cc1)c1cncs1` (stereo not shown) [Compound 79], the efficacy with Septoria tritici stood at 88%; in the data set on Sphaerotheca fuliginea, 93%; in data set [1] it was 100%; in the data set with Venturia inaequalis it was 100%; in the data set on Leptosphaeria nodorum, 86%. In addition, the logP result in [2] was “logP 3.73^[a]; [M + H]^+ = 318”.
